The results in this text go back to patent publication US8269014B2, “Thiophene analogues for the treatment or prevention of flavivirus infections” (Vertex Pharmaceuticals (Canada) Incorporated, priority 2006, dated 2012).

Series [1] has as its system HCV replicon cells (Huh-7 ET cells). Type of series: cell-based, human. The following applies: Ratio of CC50/IC50 in HCV replicon cells (Huh-7 ET cells); average TI when tested more than once.
A further series has as its system CYP3A4. Description: Induction in cultured human hepatocytes (CYP3A4 activity and mRNA). Type of series: in vitro ADME. The settings on record: relative to compound E / other thiophene analogues.
Series [2] is described as follows: Stability in human and rat microsomes. The settings on record: human and rat hepatic microsomes; relative to compound E / other thiophene analogues. Type of series: in vitro ADME. The method, then: Incubations containing no NADPH and no UDPGA are used as controls. The compounds are incubated at 50 uM for 0 and 60 minutes. The reaction is stopped by the addition of an equal volume of acetonitrile. The mixture is centrifuged and the supernatant is analyzed by HPLC/UV or MS/MS. The percentage parent remaining corresponds to the area of the parent compound in the 60-minute incubation versus the area of the parent compound in a 0-minute incubation ×100.

Turning to `CC1CCC(C(=O)N(c2cc(-c3ccccc3)sc2C(=O)O)C(C)C)CC1` (stereo not shown) [A, reference compound], the TI entry in series [1] is reported as “++ (++: 100-1000)”. The same measure, in the same setting: under `CC1CCC(C(=O)N(c2cc(-c3ccccc3)sc2C(=O)O)C2CCC(O)CC2)CC1` (stereo not shown) [B, reference compound] stands “++ (++: 100-1000)”; under `COC1CCC(N(C(=O)C2CCC(C)CC2)c2cc(-c3ccccc3)sc2C(=O)O)CC1` (stereo not shown) [C, reference compound], “+ (+: <100)”. Take `CC(C)(C)C#Cc1cc(N(C(=O)[C@H]2CC[C@H](C)CC2)[C@H]2CC[C@H](O)CC2)c(C(=O)O)s1` [Compound 1, 5-(3,3-DIMETHYL-BUT-1-YNYL)-3-[(TRANS-4-HYDROXY-CYCLOHEXYL)-(TRANS-4-METHYL-CYCLOHEXANECARBONYL)-AMINO]-THIOPHENE-2-CARBOXYLIC ACID]: in the series with CYP3A4, the “induction profile in human hepatocytes” value is “better”. Moreover, the microsome stability profile entry in series [2] is on record as “better”. Further, the TI entry in series [1] is “++++++ (++++++: >6000)”. As to `CO[C@H]1CC[C@H](N(c2cc(C#CC(C)(C)C)sc2C(=O)O)C(=O)[C@H]2CC[C@H](C)CC2)CC1` [Compound 2, 5-(3,3-DIMETHYL-BUT-1-YNYL)-3-[(TRANS-4-METHOXY-CYCLOHEXYL)-(TRANS-4-METHYL-CYCLOHEXANECARBONYL)-AMINO]-THIOPHENE-2-CARBOXYLIC ACID], the “induction profile in human hepatocytes” value in the series on CYP3A4 is on record as “better”. Also, in series [2], the microsome stability profile result is listed as “better”. The TI result in series [1] is recorded as “+++ (+++: 1000-2000)”.

As to `CC(C)(C)C#Cc1cc(N(C(=O)[C@H]2CC[C@H](C)CC2)[C@H]2CC[C@@H](n3cncn3)CC2)c(C(=O)O)s1` [Compound 3, 5-(3,3-DIMETHYL-BUT-1-YNYL)-3-[(TRANS-4-METHYL-CYCLOHEXANECARBONYL)-(CIS-4-[1,2,4]TRIAZOL-1-YL-CYCLOHEXYL)-AMINO]-THIOPHENE-2-CARBOXYLIC ACID], the TI result in series [1] is listed as “++++++ (++++++: >6000)”. For the compound `CC(C)(C)C#Cc1cc(N(C(=O)[C@H]2CC[C@H](C)CC2)[C@H]2CC[C@H](n3cncn3)CC2)c(C(=O)O)s1` [Compound 4, 5-(3,3-DIMETHYL-BUT-1-YNYL)-3-[(TRANS-4-METHYL-CYCLOHEXANECARBONYL)-(TRANS-4-[1,2,4]TRIAZOL-1-YL-CYCLOHEXYL)-AMINO]-THIOPHENE-2-CARBOXYLIC ACID], the TI result in series [1] is reported as “++++ (++++: 2000-4000)”. For `CC(C)(C)C#Cc1cc(N(C(=O)[C@H]2CC[C@H](C)CC2)[C@H]2CC[C@@H](O)CC2)c(C(=O)O)s1` [Compound 5, 5-(3,3-DIMETHYL-BUT-1-YNYL)-3-[(CIS-4-HYDROXY-CYCLOHEXYL)-(TRANS-4-METHYL-CYCLOHEXANECARBONYL)-AMINO]-THIOPHENE-2-CARBOXYLIC ACID], the TI result in series [1] was “++++++ (++++++: >6000)”. For `CC1CCC(C(=O)N(c2cc(C#CC(C)(C)C)sc2C(=O)O)C2CCC(n3ccnn3)CC2)CC1` (stereo not drawn) [Compound 7, 5-(3,3-DIMETHYL-BUT-1-YNYL)-3-[(TRANS-4-METHYL-CYCLOHEXANECARBONYL)-(4-CIS-[1,2,3]TRIAZOL-1-YL-CYCLOHEXYL)-AMINO]-THIOPHENE-2-CARBOXYLIC ACID], the TI entry in series [1] is recorded as “+++++ (+++++: 4000-6000)”. Take `CC(C)(C)C#Cc1cc(N(C(=O)[C@H]2CC[C@H](C)CC2)[C@H]2CC[C@H](n3ccnn3)CC2)c(C(=O)O)s1` [Compound 8, 5-(3,3-DIMETHYL-BUT-1-YNYL)-3-[(TRANS-4-METHYL-CYCLOHEXANECARBONYL)-(TRANS-4-[1,2,3]TRIAZOL-1-YL-CYCLOHEXYL)-AMINO]-THIOPHENE-2-CARBOXYLIC ACID]: the TI result in series [1] is given as “++++++ (++++++: >6000)”. `CC(C)(C)C#Cc1cc(N(C(=O)[C@H]2CC[C@H](C)CC2)[C@H]2CC[C@H](F)CC2)c(C(=O)O)s1` [Compound 9, 5-(3,3-DIMETHYL-BUT-1-YNYL)-3-[(TRANS-4-FLUORO-CYCLOHEXYL)-(TRANS-4-METHYL-CYCLOHEXANECARBONYL)-AMINO]-THIOPHENE-2-CARBOXYLIC ACID]: the TI entry in series [1] is given as “++++++ (++++++: >6000)”. As to `CC1CCC(C(=O)N(c2cc(C#CC(C)(C)C)sc2C(=O)O)C(C)C)CC1` (stereo not shown) [E, reference compound], in series [1], the TI entry was “+++ (+++: 1000-2000)”. As to `CC1CCC(C(=O)N(c2cc(-c3ccccc3)sc2C(=O)O)C2CCC(n3ccnn3)CC2)CC1` (stereo not shown) [F, reference compound], the TI entry in series [1] is given as “++ (++: 100-1000)”. Regarding `CC1CCC(C(=O)N(c2cc(-c3ccccc3)sc2C(=O)O)C2CCC(n3cncn3)CC2)CC1` (stereo not shown) [G, reference compound], in series [1], the TI entry is “+++ (+++: 1000-2000)”.

Regarding `CC1CCC(C(=O)N(c2cc(-c3ccccc3)sc2C(=O)O)C2CCC(F)CC2)CC1` (stereo not shown) [H, reference compound], the TI entry in series [1] is “+ (+: <100)”.
